Data: patent US12263175B2, “Optimised dosage of diaminophenothiazines in populations” (WisTa Laboratories Ltd., priority 2018, dated 2025)
“And” between values parts separate entries of the source, which are not always exact repeats. Equal values may be shown once. Read-outs that look alike come from different tables or passages of the source.

Assays:
[1] = Population PK model estimate of steady-state parent MT Cmax in AD patients (Studies 005 and 015); assay type: in vivo, human; conditions: for Cmax: human, plasma, oral
Description: This, the PK model was then further developed and simplified to a two compartment model fit to the parent MT concentrations only. This model has a fixed Vc, but the dose-dependent Ka is removed.
This model was derived from Study 036 discussed above. The disposition of parent MT post PO administration of LMTM was adequately described by a two-compartment model with and a delayed absorption occurring through two transit compartments. Apparent oral clearance (CL/F) of parent MT was related to renal function such that a small portion of the variability in parent CL is described by normalized creatinine clearance (CLCRN).
The population PK model was then used to estimate Cmax of parent MT in the patients who received 4 mg or high dose (c. 200 mg/day) in these Phase 3 AD studies. This Bayesian process involved fixing the population mean and inter-individual variability parameters to the estimates from the fit of the population PK model to the steady-state data from Study 036 and allowing the program to select a set of parameters, given those Bayesian priors, which best predicts the parent MT concentrations from Day 1 in each individual.
(§1) That threshold was <0.373 ng/mL.
Higher doses were grouped according to dose (N=187-329 per group).
Since only 65% of patients receiving the 8 mg/day have plasma concentrations above the threshold required for significant treatment benefit, it is desirable to determine the minimum dose at which 100% patients would be expected to have plasma levels within the therapeutic range.

[2] = Population PK model estimate of steady-state parent MT Cmax in bvFTD trial patients; assay type: in vivo; conditions: human, plasma, oral, 8 mg/day, read-out: Cmax,ss cut-off, upper limit of the lowest 35% group
Experimental: (§2) The population PK model described above was used to estimate Cmax of parent MT in the patients in the bvFTD study. As with the AD trials described above, the median value at each dose was taken as a threshold for dividing patients into “High Cmax” and “Low Cmax” groups.
The cut-off that defined the upper limit of the lowest 35% group (corresponding to the percentage of patients with plasma levels below the validated limit of quantitation in Day 1) was 0.346 ng/ml for the bvFTD population.
As for AD (see Example 10) the remainder with Day 1 plasma levels within the validated range of quantitation at the 8 mg/day dose were distributed in 3 groups having approximately equal numbers (22% each; see Table EX7 below).

AD patients = assay: Phase 3 AD studies 005 and 015: clinical and MRI volumetric endpoints by Cmax,ss group; assay type: in vivo, human; conditions: for EC50: Homo sapiens, 10920 h, ADAS-cog over 65 weeks, read-out: Cmax,ss concentration required for half-maximal treatment response
Experimental: The trial design for the Phase 3 AD studies “005” and “015” are described in Examples 4 and 3 respectively of WO2018/019823, which Examples also discuss those results. The disclosure of those Examples is specifically incorporated herein by reference. Briefly, those Phase 3 trials compared high doses of LMTM (150-250 mg/day) with a low dose (8 mg/day) intended as a mask for potential urine discolouration (Gauthier 2016; Wilcock 2018).
The results are shown in FIGS. 3a and 3b which show the same data. Patients using symptomatic treatments are labelled “Achmem”.
as §1
A further analysis of ADAS-cog decline over 65 weeks was undertaken using a modified form of the Hill equation (Wagner, 1968) in order to estimate the minimum and maximum plasma concentrations for expected treatment response over 65 weeks. […] In addition, a linear term was added to permit trends occurring at high concentrations to be included in the model using data for doses in the range 150-250 mg/day. The expanded Hill equation was applied to the data in the form: change in parameter=Emin−(Emax*([C]−0.29))/(EC50+([C]−0.29))+(A*([C]−0.29)) where Emin is the imposed zero value, Emax is the maximum treatment effect assumed in the standard Hill equation, EC50 is the Cmax,ss at which the treatment effect is 50% of the maximum assumed in the standard Hill equation and A is a further linear term estimated by the model to take account of a potential biphasic response. […] The dose range in which the treatment response is estimated to be maximal is 20-60 mg/day.

bvFTD patients = assay: Phase 3 bvFTD trial: clinical and MRI endpoints by Cmax,ss group; assay type: in vivo, human
Description: The trial design for the Phase 3 trial of LMTM in behavioural variant frontotemporal dementia (bvFTD) is described in Examples 3 to 10 of WO2018/041739, which Examples also discuss those results. The disclosure of those Examples is specifically incorporated herein by reference.
as §2
However the decline in the Cmax high group was much reduced (−6.1±1.8). All efficacy analyses are based on an MMRM approach
Alternative efficacy analyses were performed in which the group of patients with minimal systemic exposure to the drug was used as a proxy for placebo. These are shown in the Table EX8 below and illustrated in FIG. 19.
In addition, a linear term was added to permit trends occurring at high concentrations to be included in the model using mean decline occurring at the 200 mg/day dose.

[3] = A. All patients split by Cmax,ss 0.373 ng/mL, over 65 weeks
[4] = B. Patients receiving LMTM, 8 mg/day, over 65 weeks
[5] = LMTM, 8 mg/day, as add-on therapy (AChEI and/or memantine), over 65 weeks
[6] = LMTM, 8 mg/day, as monotherapy, over 65 weeks
[7] = LMTM, 8 mg/day, threshold 0.373 ng/ml, over 65 weeks

Q: Which results are given for CN(C)c1ccc2c(c1)Sc1cc(N(C)C)ccc1N2 [LMTM, leuco-methylthioninium bis(hydromethanesulfonate)]?
A: Proportion of subjects above Cmax threshold ([1]; 4 mg bid): 50%; Critical therapeutic threshold for Cave,ss ([1]; AD patients): 0.223 ng/mL; Critical therapeutic threshold for Cmax,ss ([1]; AD patients): 0.393 ng/mL; Patients with plasma concentrations above the threshold required for significant treatment benefit ([1]; AD patients receiving 8 mg/day): 65%; Plasma-modelled parent MT Cmax,ss Mean (SD) ([1]; AD, studies TRx-237-015 and TRx-237-005, 8 mg/day - Group 2): 0.393 (0.0125) ng/mL; Dose for 100% of patients to have plasma levels in the therapeutic range ([1]; AD, QD or BID, either Cmax,ss or Cave,ss criterion): at least 16 mg/day; Proportion of subjects achieving Cmax above the median-derived threshold value ([1]; dosing above 20 mg MT (e.g. as LMTM), depends on number of split doses): 90 to 100%; Cmax ([1]; 8 mg/day, AD patients receiving LMTM 8 mg/day, read-out: Cmax,ss threshold, upper limit of the lowest 35% of patients): < 0.373 ng/mL; Cmax ([1]; 8 mg/day, AD, studies TRx-237-015 and TRx-237-005, 8 mg/day - Group 1, read-out: Plasma-modelled parent MT Cmax,ss Range): 0.257 to 0.373 ng/mL; Cmax ([1]; 8 mg/day, AD, studies TRx-237-015 and TRx-237-005, 8 mg/day - Group 2, read-out: Plasma-modelled parent MT Cmax,ss Range): 0.373 to 0.414 ng/mL; Cmax ([1]; 8 mg/day, AD, studies TRx-237-015 and TRx-237-005, 8 mg/day - Group 3, read-out: Plasma-modelled parent MT Cmax,ss Range): 0.415 to 0.478 ng/mL; Cmax ([1]; 8 mg/day, AD, studies TRx-237-015 and TRx-237-005, 8 mg/day - Group 4, read-out: Plasma-modelled parent MT Cmax,ss Range): 0.479 to 0.812 ng/mL; Cmax ([1]; 150 mg/day, AD, studies TRx-237-015 and TRx-237-005, 150 mg/day, read-out: Plasma-modelled parent MT Cmax,ss Range): 5.1 to 18.6 ng/mL; Cmax ([1]; 200 mg/day, AD, studies TRx-237-015 and TRx-237-005, 200 mg/day, read-out: Plasma-modelled parent MT Cmax,ss Range): 6.56 to 21.3 ng/mL; Cmax ([1]; 250 mg/day, AD, studies TRx-237-015 and TRx-237-005, 250 mg/day, read-out: Plasma-modelled parent MT Cmax,ss Range): 8.83 to 21.2 ng/mL; Estimated proportion of subjects above Cmax threshold ([1]; ˜20 mg/day (10 mg bid)): ~100%; Cmax [2]: 0.346 ng/mL; Predicted treatment effect relative to placebo (AD patients; 4 mg bid, over 65 weeks): ~5 ADAS-cog units; ADAS-cog Difference ± SEM, Cmax,ss above vs below 0.373 ng/mL (AD patients; [3]): −2.99 ± 0.67 ADAS-cog units; ADCS-ADL Difference ± SEM, Cmax,ss above vs below 0.373 ng/mL (AD patients; [3]): 0.54 ± 0.94; LVV Difference ± SEM, Cmax,ss above vs below 0.373 ng/mL (AD patients; [3]): −1.52 ± 0.34 cm^3; WBV Difference ± SEM, Cmax,ss above vs below 0.373 ng/mL (AD patients; [3]): 3.55 ± 1.06 cm^3; ADCS-ADL Difference ± SEM, Cmax,ss above vs below 0.373 ng/mL (AD patients; [4]): 1.22 ± 1.01; LVV Difference ± SEM, Cmax,ss above vs below 0.373 ng/mL (AD patients; [4]): −1.78 ± 0.38 cm^3; WBV Difference ± SEM, Cmax,ss above vs below 0.373 ng/mL (AD patients; [4]): 4.39 ± 1.18 cm^3; EC50 (AD patients; LMTM combined with symptomatic treatments): 0.4 ± 0.05 ng/mL; EC50 (AD patients; LMTM monotherapy): 0.32 ± 0.01 ng/mL; ADAS-cog11 Difference ± SEM, Cmax,ss above vs below 0.373 ng/mL (AD patients; [5]): −3.52 ± 0.78; ADCS-ADL23 Difference ± SEM, Cmax,ss above vs below 0.373 ng/mL (AD patients; [5]): 1.32 ± 1.04; LVV Difference ± SEM, Cmax,ss above vs below 0.373 ng/mL (AD patients; [5]): −1.35 ± 0.37 cm^3; WBV Difference ± SEM, Cmax,ss above vs below 0.373 ng/mL (AD patients; [5]): 4.69 ± 1.21 cm^3; ADAS-cog11 Difference ± SEM, Cmax,ss above vs below 0.373 ng/mL (AD patients; [6]): −2.60 ± 1.16; ADCS-ADL23 Difference ± SEM, Cmax,ss above vs below 0.373 ng/mL (AD patients; [6]): 0.46 ± 1.47; LVV Difference ± SEM, Cmax,ss above vs below 0.373 ng/mL (AD patients; [6]): −1.46 ± 0.45 cm^3; WBV Difference ± SEM, Cmax,ss above vs below 0.373 ng/mL (AD patients; [6]): 2.76 ± 1.66 cm^3; ADAS-cog11 Difference ± SEM, low Cmax add-on vs high Cmax monotherapy (AD patients; [7]): −7.53 ADAS-cog11 units and −7.53 ± 1.22 ADAS-cog11 units; ADCS-ADL23 Difference ± SEM, low Cmax add-on vs high Cmax monotherapy (AD patients; [7]): 6.14 ± 1.64; LVV Difference ± SEM, low Cmax add-on vs high Cmax monotherapy (AD patients; [7]): −3.15 ± 0.62 cm^3; WBV Difference ± SEM, low Cmax add-on vs high Cmax monotherapy (AD patients; [7]): 11.54 ± 1.87 cm^3; Dose range in which the treatment response is estimated to be maximal (AD patients; expanded Hill equation, ADAS-cog decline over 65 weeks): 20 to 60 mg/day; Reduction of estimated maximum treatment effect when combined with symptomatic treatments, compared with monotherapy (AD patients; expanded Hill equation, over 65 weeks): about 4 ADAS-cog units; Temporal lobe FDG-PET decline (AD patients; high dose LMTM (pooled 200 mg/day)): attenuated benefit otherwise seen for LMTM monotherapy; Mean difference between monotherapy and add-on, ADAS-cog change (AD patients; pooled 8 mg/day (4 mg bid), Studies 005 and 015, over 65 weeks): ~4 ADAS-cog units; Lower limiting plasma concentration required for treatment response (bvFTD patients; bvFTD patients receiving 8 mg/day, expanded Hill equation): 0.29 ng/mL; Dose-response for high dose monotherapy on functional FAQ scale (bvFTD patients; bvFTD, 200 mg/day vs 8 mg/day): inverse dose-response; Predicted dose corresponding to the maximum limiting concentration (bvFTD patients; bvFTD, whole brain volume over 52 weeks): 301 mg/day; Maximum limiting concentration at which the treatment effect was lost (bvFTD patients; bvFTD, whole brain volume over 52 weeks, expanded Hill equation): 13.57 ng/mL
